Where a name gives a salt, the structure may show the parent alone.
Columns and labels:
DSS colitis [1] = assay type: in vivo, C57BL/6J mice; conditions: mouse
Procedure: C57BL/6J (Jackson Lab) male mice weighing 25±2 g at 9 weeks of age were used, and all the mice were fed freely by providing standard experimental feed. The compound of Example 53 and LX1606 were dissolved in 0.25% methylcellulose (MC) solution, which was orally administered to mice at the dose of 100 and 300 mg/kg/time using a 1 mL syringe. The compound of Example 53 and LX1606 were administered for 7 days, starting one day prior to dextran sulfate sodium (DSS) administration. Before and after the administration, the samples of colon tissue were collected from each mouse treated with the compound of Example 53 or the control drug (LX1606) to confirm clinical symptoms. Data are expressed as mean±standard error of mean (SEM), and all statistical analyses were performed using GraphPad Prism (version 5.0, GraphPad Software, La Jolla, Calif.). Differences in mean between groups were statistically analyzed by two-way analysis of variance (ANOVA) and multiple comparison tests to reveal the differences between the experimental groups. […]
Colon permeability was measured to confirm if the compound of the present invention affected the amelioration of inflammatory bowel disorder. […] The importance of the intestinal epithelial layer was measured by the changes in intercellular permeability and intimate junction function observed in inflammatory bowel disease (IBD) and colorectal cancer. […]

[2] = biological target: TPH1 (tryptophan hydroxylase 1) (Homo sapiens (Human), UniProt P17752); test: TPH1 inhibitor screening assay kit (BPS Bioscience), fluorescence; assay type: biochemical; conditions: TPH1 enzyme, 4 hours at 4° C., ex 300 nm / em 360 nm
TPH1 (tryptophan hydroxylase 1), sequence (P17752 whole entry): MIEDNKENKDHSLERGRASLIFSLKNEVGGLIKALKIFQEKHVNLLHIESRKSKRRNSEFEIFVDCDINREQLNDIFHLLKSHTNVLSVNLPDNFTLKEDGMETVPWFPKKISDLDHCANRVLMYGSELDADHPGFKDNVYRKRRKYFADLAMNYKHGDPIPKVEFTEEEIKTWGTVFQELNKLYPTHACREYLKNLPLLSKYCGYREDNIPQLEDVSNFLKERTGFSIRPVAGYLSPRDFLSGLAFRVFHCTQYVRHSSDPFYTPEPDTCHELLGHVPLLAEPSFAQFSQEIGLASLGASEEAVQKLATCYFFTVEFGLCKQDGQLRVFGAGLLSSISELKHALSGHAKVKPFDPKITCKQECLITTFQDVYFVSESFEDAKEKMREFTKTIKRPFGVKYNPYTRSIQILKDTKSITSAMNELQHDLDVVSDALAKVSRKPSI
Procedure: In order to confirm the inhibitory effect of the compound represented by formula 1 according to the present invention on the tryptophan hydroxylase activity, it was measured using a TPH1 (tryptophan hydroxylase 1) inhibitor screening assay kit (BPS Bioscience, Catalog #72053). The TPH1 inhibitor screening assay kit was used according to the manufacturer's manual.
Particularly, the synthesized compound was dissolved in DMSO, which was added to a 96-well microplate (10 ? /well), to which TPH1 enzyme was added (40 ? /well). Then, TPH1 reaction solution was added to the microplate (50 ? /well) and the microplate was shaded with aluminum foil. The microplate was transferred to 4° C. environment, shaken carefully and incubated for 4 hours. After adding a quench solution to the microplate (10 ? /well), the TPH1 activity was measured by reading the degree of fluorescence color development with a Flexstation3 microplate reader. At this time, the excitation spectrum was 300 nm and the emission spectrum was 360 nm.

DSS colitis [3] = test: DSS colitis mouse model: colon length and colon looseness; assay type: in vivo, C57BL/6J mice; conditions: 100 mg/kg and 300 mg/kg oral, 7 days, 2.5% DSS
Procedure: C57BL/6J (Jackson Lab) male mice weighing 25±2 g at 9 weeks of age were used, and all the mice were fed freely by providing standard experimental feed. The compound of Example 53 and LX1606 were dissolved in 0.25% methylcellulose (MC) solution, which was orally administered to mice at the dose of 100 and 300 mg/kg/time using a 1 mL syringe. The compound of Example 53 and LX1606 were administered for 7 days, starting one day prior to dextran sulfate sodium (DSS) administration. Before and after the administration, the samples of colon tissue were collected from each mouse treated with the compound of Example 53 or the control drug (LX1606) to confirm clinical symptoms. Data are expressed as mean±standard error of mean (SEM), and all statistical analyses were performed using GraphPad Prism (version 5.0, GraphPad Software, La Jolla, Calif.). Differences in mean between groups were statistically analyzed by two-way analysis of variance (ANOVA) and multiple comparison tests to reveal the differences between the experimental groups. P<0.05 was considered statistically significant.
Enteritis was induced in mice by freely drinking 2.5% DSS (molecular weight: 36,000-50,000 M.Wt; manufactured by MP Biomedicals, Canada) aqueous solution for 6 days, and the body weight, stiffness of the stool, and the presence or absence of bloody stool were observed daily from the start of the administration. […]

Row | Compound | IC50 [2] [nM] | other results
1 | CCOC(=O)[C@@H](N)CC1CC=C(c2cc(O[C@H](c3ccc(Cl)cc3-n3ccc(C)n3)C(F)(F)F)nc(N)n2)CC1 (stereo partly drawn) [Example 53, ethyl (2S)-2-amino-3-(4-(2-amino-6-((R)-1-(4-chloro-2-(3-methyl-1H-pyrazole-1-yl)phenyl)-2,2,2-trifluoroethoxy)pyrimidine-4-yl)cyclohex-3-ene-1-yl)propionate hippurate] |  | colon permeability (DSS colitis [1]): lower permeability was observed on average
2 | Nc1nc(O[C@H](c2ccc(Cl)cc2C2=CCOCC2)C(F)(F)F)cc(C2=CCC(C[C@H](N)C(=O)O)CC2)n1 (stereo partly drawn) [Example 85, (2S)-2-amino-3-(4-(2-amino-6-((R)-1-(4-chloro-2-(3,6-dihydro-2H-pyran-4-yl)phenyl)-2,2,2-trifluoroethoxy)pyrimidine-4-yl)cyclohex-3-ene-1-yl)propionic acid] | 940 | 
3 | COc1cccc(-c2ccc([C@@H](Oc3cc(C4=CCC5(CC4)CNC(C(=O)O)C5)nc(N)n3)C(F)(F)F)cc2)c1 (stereo partly drawn) [Example 87, 8-(2-amino-6-((R)-2,2,2-trifluoro-1-(3′-methoxy-[1,1′-biphenyl]-4-yl)ethoxy)pyrimidine-4-yl)-2-azaspiro[4.5]dec-7-ene-3-carboxylic acid hydrochloride] |  | IC50 ([2]; hydrochloride): 741 nM
4 | COc1cccc(-c2ccc([C@@H](Oc3cc(C4=CCC5(CC4)CNC(C(=O)O)C5)nc(N)n3)C(F)(F)F)cc2)c1 (stereo partly drawn) [Example 89, 8-(2-amino-6-((R)-2,2,2-trifluoro-1-(3′-methoxy-[1,1′-biphenyl]-4-yl)ethoxy)pyrimidine-4-yl)-2-azaspiro[4.5]dec-7-ene-3-carboxylic acid] | 409 | 
5 | Cc1ccn(-c2cc(Cl)ccc2[C@@H](Oc2nc(N)nc3c(-c4ccc(C[C@H](N)C(=O)O)cc4)csc23)C(F)(F)F)n1 [Example 91, (S)-2-amino-3-(4-(2-amino-4-((R)-1-(4-chloro-2-(3-methyl-1H-pyrazole-1-yl)phenyl)-2,2,2-trifluoroethoxy)thieno[3,2-d]pyrimidine-7-yl)phenyl)propionic acid hydrochloride] | 208 | 
6 | Nc1nc(O[C@H](c2ccc(Cl)cc2C2=CCCOC2)C(F)(F)F)cc(C2=CCC3(CC2)CNC(C(=O)O)C3)n1 (stereo partly drawn) [Example 94, 8-(2-amino-6-((R)-1-(4-chloro-2-(5,6-dihydro-2H-pyran-3-yl)phenyl)-2,2,2-trifluoroethoxy)pyrimidine-4-yl)-2-azaspiro[4.5]dec-7-ene-3-carboxylic acid hydrochloride] | 209 | 
7 | CCOC(=O)[C@@H](N)Cc1ccc(-c2cc(O[C@H](c3ccc(Cl)cc3-n3ccc(C)n3)C(F)(F)F)nc(N)n2)cc1 [LX1606, (2S)-2-Amino-3-[4-[2-amino-6-[[(1R)-1-[4-chloro-2-(3-methylpyrazol-1-yl)phenyl]-2,2,2-trifluoroethyl]oxy]pyrimidin-4-yl]phenyl]propionic acid ethyl ester] |  | colon length compared with vehicle group (DSS colitis [3]): not longer than that of the group treated with vehicle

Reference: patent publication US11407763B2, “Tryptophan hydroxylase inhibitor and pharmaceutical composition including same” (GWANGJU INSTITUTE OF SCIENCE AND TECHNOLOGY, priority 2017, dated 2022)
